According to ChEMBL document CHEMBL5352419, “Design, synthesis, and biological evaluation of tetrahydroquinoline amphiphiles as membrane-targeting antimicrobials against pathogenic bacteria and fungi” (Eur J Med Chem, 2022):
Converted amounts (≈) assume the structure as drawn. The source made the active and inactive calls. The rule behind the calls is not given here.

Columns and labels:
Escherichia coli [1] = experiment: Disruption of preformed biofilm in Escherichia coli ATCC25922 assessed as residual preformed biofilm at 0.78 ug/mL incubated for 24 hrs by crystal violet staining based analysis relative to control; format: functional; details: dose 0.78 µg/ml
Candida albicans [2] = experiment: Antimicrobial activity against Candida albicans ATCC10231 assessed as fungal growth inhibition incubated for 48 hrs in presence of 24.3 ug/mL Mg2+ by Sabouraud Dextrose broth based dilution assay; format: functional
Staphylococcus aureus [3] = experiment: Antimicrobial activity against methicillin-resistant Staphylococcus aureus N315 assessed as bacterial growth inhibition incubated for 24 hrs by Muller Hinton broth based dilution assay; format: functional
Cell membrane [4] = experiment: Induction of outer membrane permeabilization in Escherichia coli ATCC25922 assessed as increase in fluorescence intensity at 1 to 8 times of MIC measured for 1 hrs by NPN uptake assay
Staphylococcus aureus [5] = experiment: Antimicrobial activity against Staphylococcus aureus ATCC29213 assessed as log reduction in microbial load at 4 times of MIC measured at 1 hr by time-kill kinetics assay; format: functional
Pseudomonas aeruginosa = experiment: In vivo antibacterial activity against Pseudomonas aeruginosa ATCC9027 infected in keratitis C57BL/6 mouse model assessed as log reduction in bacterial load at 0.5 % administered topically 4 times per day for 3 days; format: functional; details: time 3 day
Candida albicans [6] = experiment: Antimicrobial activity against Candida albicans CMCC98001 assessed as fungal growth inhibition incubated for 48 hrs in presence of 24.3 ug/mL […] by Sabouraud Dextrose broth based dilution assay; format: functional
[7] = Cytotoxicity against mouse J774.A1 cells assessed as viable cells at 25 ug/mL incubated for 24 hrs by CCK-8 assay relative to control; format: toxicity, cell-based; details: at 25 µg/mL, read-out: Activity
Candida albicans [8] = experiment: Antimicrobial activity against Candida albicans CMCC98001 assessed as fungal growth inhibition incubated for 48 hrs in presence of 100 ug/mL Ca2+ by Sabouraud Dextrose broth based dilution assay; format: functional
Escherichia coli [9] = experiment: Antimicrobial activity against Escherichia coli ATCC25922 assessed as bacterial growth inhibition incubated for 24 hrs in presence of 175.5 ug/mL K+ by Muller Hinton broth based dilution assay; format: functional
Staphylococcus aureus [10] = experiment: Antibiofilm activity against Staphylococcus aureus ATCC29213 assessed as inhibition of biofilm formation at 0.39 ug/mL incubated for 24 hrs by crystal violet staining based analysis relative to control; format: functional
Staphylococcus aureus [11] = experiment: In vivo antibacterial activity against Staphylococcus aureus ATCC29213 infected in cyclophosphamide immunosuppressed keratitis C57BL/6 mouse model assessed as log reduction in bacterial load at 0.5 % administered topically 4 times per day for 3 days; format: functional; details: time 3 day
Staphylococcus aureus [12] = experiment: Antimicrobial activity against Staphylococcus aureus ATCC29213 assessed as bacterial killing at 1 to 8 times of MIC measured upto 24 hrs by time-kill kinetics assay; format: functional, organism-based
Staphylococcus aureus [13] = experiment: Antimicrobial activity against methicillin-resistant Staphylococcus aureus NCTC10442 assessed as bacterial growth inhibition incubated for 24 hrs in presence of 175.5 ug/mL K+ by Muller Hinton broth based dilution assay; format: functional
Candida albicans [14] = experiment: Antimicrobial activity against Candida albicans CMCC98001 assessed as fungal growth inhibition incubated for 48 hrs in presence of 175.5 ug/mL K+ by Sabouraud Dextrose broth based dilution assay; format: functional
[15] = Cytotoxicity against mouse corneal epithelial cells assessed as viable cells at 3.125 ug/mL incubated for 24 hrs by CCK-8 assay relative to control; format: toxicity, cell-based, Corneal epithelial cell; details: at 3.125 µg/mL, read-out: Activity
Staphylococcus aureus [16] = experiment: Antimicrobial activity against Staphylococcus aureus ATCC29213 assessed as bacterial growth inhibition incubated for 24 hrs in presence of 3220 ug/mL Na+ by Muller Hinton broth based dilution assay; format: functional
Staphylococcus aureus [17] = experiment: Disruption of preformed biofilm in Staphylococcus aureus ATCC29213 assessed as residual preformed biofilm at 0.78 ug/mL incubated for 24 hrs by crystal violet staining based analysis relative to control; format: functional; details: dose 0.78 µg/ml
Cell membrane [18] = experiment: Disruption of membrane integrity in Candida albicans ATCC10231 assessed as red fluorescence at 8 times of MIC incubated for 2 hrs under dark condition by SYTO 9 and PI staining based laser confocal microscopy analysis
Escherichia coli [19] = experiment: Disruption of preformed biofilm in Escherichia coli ATCC25922 assessed as residual preformed biofilm at 6.25 ug/mL incubated for 24 hrs by crystal violet staining based analysis relative to control; format: functional; details: dose 6.25 µg/ml
Acinetobacter baumannii [20] = experiment: Antimicrobial activity against Acinetobacter baumannii ATCC17978 assessed as bacterial growth inhibition incubated for 24 hrs in presence of 3220 ug/mL Na+ by Muller Hinton broth based dilution assay; format: functional
Candida albicans [21] = experiment: Antimicrobial activity against Candida albicans CMCC98001 assessed as fungal growth inhibition incubated for 48 hrs in presence of 3220 ug/mL Na+ by Sabouraud Dextrose broth based dilution assay; format: functional
Staphylococcus aureus [22] = experiment: Antimicrobial activity against methicillin-resistant Staphylococcus aureus NCTC10442 assessed as bacterial growth inhibition incubated for 24 hrs in presence of 100 ug/mL Ca2+ by Muller Hinton broth based dilution assay; format: functional
Escherichia coli [23] = experiment: Antimicrobial activity against Escherichia coli ATCC25922 assessed as bacterial growth inhibition incubated for 24 hrs in presence of 100 ug/mL Ca2+ by Muller Hinton broth based dilution assay; format: functional
Staphylococcus aureus [24] = experiment: Disruption of preformed biofilm in Staphylococcus aureus ATCC29213 assessed as residual preformed biofilm at 6.25 ug/mL incubated for 24 hrs by crystal violet staining based analysis relative to control; format: functional; details: dose 6.25 µg/ml
[25] = Cytotoxicity against mouse NCTC clone 929 cells assessed as viable cells at 3.125 ug/mL incubated for 24 hrs by CCK-8 assay relative to control; format: toxicity, cell-based; details: NCTC clone 929 (L929) cells, at 3.125 µg/mL, read-out: Activity
Staphylococcus aureus [26] = experiment: Antimicrobial activity against Staphylococcus aureus ATCC29213 assessed as bacterial growth inhibition incubated for 24 hrs in presence of 175.5 ug/mL K+ by Muller Hinton broth based dilution assay; format: functional
Acinetobacter baumannii [27] = experiment: Antimicrobial activity against Acinetobacter baumannii ATCC17978 assessed as bacterial growth inhibition incubated for 24 hrs in presence of 175.5 ug/mL K+ by Muller Hinton broth based dilution assay; format: functional
Acinetobacter baumannii [28] = experiment: Antimicrobial activity against Acinetobacter baumannii R2889 assessed as bacterial growth inhibition incubated for 24 hrs by Muller Hinton broth based dilution assay; format: functional
[29] = Cytotoxicity against mouse NCTC clone 929 cells assessed as viable cells at 12.5 ug/mL incubated for 24 hrs by CCK-8 assay relative to control; format: toxicity, cell-based; details: NCTC clone 929 (L929) cells, at 12.5 µg/mL, read-out: Activity
[30] = Cytotoxicity against mouse NCTC clone 929 cells assessed as viable cells at 50 ug/mL incubated for 24 hrs by CCK-8 assay relative to control; format: toxicity, cell-based; details: NCTC clone 929 (L929) cells, at 50 µg/mL, read-out: Activity
Escherichia coli [31] = experiment: Antibiofilm activity against Escherichia coli ATCC25922 assessed as inhibition of biofilm formation at 0.39 ug/mL incubated for 24 hrs by crystal violet staining based analysis relative to control; format: functional
Escherichia coli [32] = experiment: Antibiofilm activity against Escherichia coli ATCC25922 assessed as inhibition of biofilm formation at 3.125 ug/mL incubated for 24 hrs by crystal violet staining based analysis relative to control; format: functional

## CCCCCCCCCN1CCCc2cc(OCCCCNC(=N)N)ccc21
Escherichia coli [1]
  Activity: 93.41%
Candida albicans [2]
  MIC: 1.56 µg/mL
Staphylococcus aureus [3]
  MIC: 0.78 µg/mL (≈ 2.01 µM)
Cell membrane [4]
  Activity: Active
Staphylococcus aureus [5]
  log(activity): >3
Pseudomonas aeruginosa
  log(activity): 3.2
Candida albicans [6]
  MIC: 0.78 µg/mL
[7]
  viability at 24 h, 25 ug/mL: 72.6%
Candida albicans [8]
  MIC: 1.56 µg/mL
Escherichia coli [9]
  MIC: 1.56 µg/mL
Staphylococcus aureus [10]
  inhibition at 0.39 µg/mL: 65.2%
Staphylococcus aureus [11]
  log(activity): 6.6
Staphylococcus aureus [12]
  Activity: Dose-Dependent Effect
Staphylococcus aureus [13]
  MIC: 0.78 µg/mL
Candida albicans [14]
  MIC: 0.78 µg/mL
[15]
  viability at 24 h, 3.125 ug/mL: 95.3%
Staphylococcus aureus [16]
  MIC: 0.78 µg/mL
Staphylococcus aureus [17]
  Activity: 71.31%
Cell membrane [18]
  Activity: Active
Escherichia coli [19]
  Activity: 15.34%
Acinetobacter baumannii [20]
  MIC: 3.12 µg/mL
Candida albicans [21]
  MIC: 0.78 µg/mL
Staphylococcus aureus [22]
  MIC: 0.78 µg/mL
Escherichia coli [23]
  MIC: 3.12 µg/mL
Staphylococcus aureus [24]
  Activity: 4.69%
[25]
  viability at 24 h, 3.125 ug/mL: 95.5%
Staphylococcus aureus [26]
  MIC: 0.78 µg/mL
Acinetobacter baumannii [27]
  MIC: 3.12 µg/mL
Acinetobacter baumannii [28]
  MIC: 3.12 µg/mL (≈ 8.04 µM)
[29]
  viability at 24 h, 12.5 ug/mL: 89.4%
[30]
  viability at 24 h, 50 ug/mL: 23.7%
Escherichia coli [31]
  inhibition at 0.39 µg/mL: 21.6%
Escherichia coli [32]
  inhibition at 3.125 µg/mL: 96.2%

## CC(C)=CCN1CCCc2cc(OCCCCCCCCNC(=N)N)ccc21
Escherichia coli [1]
  Activity: 96.08%
Candida albicans [2]
  MIC: 1.56 µg/mL
Staphylococcus aureus [3]
  MIC: 0.78 µg/mL (≈ 2.02 µM)
Cell membrane [4]
  Activity: Active
Staphylococcus aureus [5]
  log(activity): >3
Pseudomonas aeruginosa
  log(activity): 3.4
Candida albicans [6]
  MIC: 0.78 µg/mL
[7]
  viability at 24 h, 25 ug/mL: 58.8%
Candida albicans [8]
  MIC: 1.56 µg/mL
Escherichia coli [9]
  MIC: 3.12 µg/mL
Staphylococcus aureus [10]
  inhibition at 0.39 µg/mL: 50.2%
Staphylococcus aureus [11]
  log(activity): 6.3
Staphylococcus aureus [12]
  Activity: Dose-Dependent Effect
Staphylococcus aureus [13]
  MIC: 0.78 µg/mL
Candida albicans [14]
  MIC: 0.78 µg/mL
[15]
  viability at 24 h, 3.125 ug/mL: 99.7%
Staphylococcus aureus [16]
  MIC: 0.78 µg/mL
Staphylococcus aureus [17]
  Activity: 70.52%
Cell membrane [18]
  Activity: Active
Escherichia coli [19]
  Activity: 18.49%
Acinetobacter baumannii [20]
  MIC: 3.12 µg/mL
Candida albicans [21]
  MIC: 0.78 µg/mL
Staphylococcus aureus [22]
  MIC: 0.78 µg/mL
Escherichia coli [23]
  MIC: 3.12 µg/mL
Staphylococcus aureus [24]
  Activity: 10.5%
[25]
  viability at 24 h, 3.125 ug/mL: 95.5%
Staphylococcus aureus [26]
  MIC: 0.78 µg/mL
Acinetobacter baumannii [27]
  MIC: 3.12 µg/mL
Acinetobacter baumannii [28]
  MIC: 3.12 µg/mL (≈ 8.08 µM)
[29]
  viability at 24 h, 12.5 ug/mL: 89.3%
[30]
  viability at 24 h, 50 ug/mL: 29.9%
Escherichia coli [31]
  inhibition at 0.39 µg/mL: 13.5%
Escherichia coli [32]
  inhibition at 3.125 µg/mL: 92.8%
